In paper PMC6882492, “Synthesis and biological evaluation of novel thienopyrimidine derivatives as diacylglycerol acyltransferase 1 (DGAT-1) inhibitors” (Journal of Enzyme Inhibition and Medicinal Chemistry, 2019):

Legend:
[1] = target: T1, human recombinant DGAT1 enzyme expressed in insect cells (SF9 cells) (Homo sapiens, UniProt O75907); test: DGAT-1 inhibition assay (IC50), SF9 microsomes; format: biochemical; settings: SF9 insect cells expressing human DGAT-1
T1 construct: made in house; host or cells: SF9 insect cells (microsomal membrane fraction)
T1 sequence (O75907 1-488): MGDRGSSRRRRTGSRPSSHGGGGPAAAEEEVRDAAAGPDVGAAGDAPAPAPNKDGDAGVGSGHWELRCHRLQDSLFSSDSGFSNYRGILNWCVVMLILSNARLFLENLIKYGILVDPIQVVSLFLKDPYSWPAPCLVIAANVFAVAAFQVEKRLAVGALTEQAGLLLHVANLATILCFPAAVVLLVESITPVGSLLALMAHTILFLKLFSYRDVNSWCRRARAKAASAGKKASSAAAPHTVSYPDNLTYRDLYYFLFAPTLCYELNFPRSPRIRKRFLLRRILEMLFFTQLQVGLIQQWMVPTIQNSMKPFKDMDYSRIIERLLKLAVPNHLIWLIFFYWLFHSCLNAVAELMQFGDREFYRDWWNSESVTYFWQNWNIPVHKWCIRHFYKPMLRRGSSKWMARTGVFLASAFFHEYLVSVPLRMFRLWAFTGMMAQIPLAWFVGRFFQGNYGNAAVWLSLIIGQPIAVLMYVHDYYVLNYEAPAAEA
Experimental: The activity of DGAT-1 inhibitors in vitro was evaluated by using a human recombinant DGAT1 enzyme expressed in insect cells (SF9 cells). SF9 cells were homogenised by washing them with DPBS (Dulbecco’s phosphate-buffered saline) and then suspending cell pellets with a tris buffer (250 mM sucrose; 10 mM Tris-HCl [pH 7.4]; proteinase inhibitor). The resulting mixture was centrifugally separated at 10,000 × g for 30 min to remove the cell debris remaining in the lower layer thereof, and was centrifugally separated at 100,000 × g for 60 min to obtain a microsomal membrane. Further, membrane fractions were resuspended by the tris buffer, and then stored at -80 °C.
The activity of DGAT1 was measured according to the reported method. Specifically, 0.0001 – 10 μΜ (final concentration, FC) of the test compounds were cultured at room temperature (25 °C) for 15 min with a […] of SF9 microsomal protein solution and 100 mM of MgCl2 solution, and were then further cultured at room temperature (25 °C) for 30 min after the addition of 100 μΜ (FC in 12.5% EtOH) of 1,2-dioleyl-sn-glycerol and 30 μΜ (final conc.) of [14]C-oleyl coenzyme A. The reaction was completed by the addition of 300 μL of a mixed solution of 2-propanol/heptane (7:1), and radioactive triglyceride was separated from an organic solvent layer by using 200 μL of heptane and 200 μL of a 0.1 M carbonate buffer (pH 9.5). The amount of triglyceride was measured by liquid scintillography (Perkin Elmer, USA) after mixing with an organic solvent and an equivalent amount of scintillation solvent (MicroScint-O, Perkin Elmer, USA). The effects of inhibiting DGAT1 were calculated as percent in comparison with a control material.
The activities of synthesised compounds were evaluated using SF9 insect cells expressing human DGAT-1[22]. A potent DGAT-1 inhibitor, LCQ-908 (2 or pradigastat) was used as a positive control. […] The calculated lowest energy conformation model of 14c provided that the distance between the terminal carboxylic acid and NH of urea was over 16 Å, which may result in reduced activity. […]

hDGAT2 = target: T2, hDGAT2 (Homo sapiens, UniProt Q96PD7); test: Enzymatic assay hDGAT2; format: biochemical
T2 sequence (Q96PD7 1-388): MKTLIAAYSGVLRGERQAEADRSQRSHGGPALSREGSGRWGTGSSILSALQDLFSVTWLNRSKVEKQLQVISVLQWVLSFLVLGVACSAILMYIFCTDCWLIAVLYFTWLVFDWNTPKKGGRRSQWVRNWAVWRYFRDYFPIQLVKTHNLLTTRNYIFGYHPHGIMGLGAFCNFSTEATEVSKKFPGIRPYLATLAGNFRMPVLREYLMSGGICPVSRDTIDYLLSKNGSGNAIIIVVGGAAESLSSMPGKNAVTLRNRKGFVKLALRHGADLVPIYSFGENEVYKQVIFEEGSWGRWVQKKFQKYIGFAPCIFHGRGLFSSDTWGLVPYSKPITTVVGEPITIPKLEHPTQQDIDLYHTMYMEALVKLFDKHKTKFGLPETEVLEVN
From the text: ACATs have sequence homology to DGAT-1 and play essential roles in cholesterol homeostasis. 17b was not explored in the enzymatic assays due to its poor pharmacokinetic profile.

[2] = In vitro microsomal stability, human; format: in vitro ADME; settings: human liver microsomes, 5 μM, 60 min
[3] = In vitro microsomal stability, dog; format: in vitro ADME; settings: dog liver microsomes, 5 μM, 60 min
CYP2D6 = CYP2D6 (Homo sapiens, UniProt P10635); test: CYP inhibition assay CYP2D6; format: in vitro ADME; settings: fluorescence detection method; read-out: CYPs enzyme inhibition, IC50, CYP2D6
Sequence of CYP2D6 (P10635 whole entry): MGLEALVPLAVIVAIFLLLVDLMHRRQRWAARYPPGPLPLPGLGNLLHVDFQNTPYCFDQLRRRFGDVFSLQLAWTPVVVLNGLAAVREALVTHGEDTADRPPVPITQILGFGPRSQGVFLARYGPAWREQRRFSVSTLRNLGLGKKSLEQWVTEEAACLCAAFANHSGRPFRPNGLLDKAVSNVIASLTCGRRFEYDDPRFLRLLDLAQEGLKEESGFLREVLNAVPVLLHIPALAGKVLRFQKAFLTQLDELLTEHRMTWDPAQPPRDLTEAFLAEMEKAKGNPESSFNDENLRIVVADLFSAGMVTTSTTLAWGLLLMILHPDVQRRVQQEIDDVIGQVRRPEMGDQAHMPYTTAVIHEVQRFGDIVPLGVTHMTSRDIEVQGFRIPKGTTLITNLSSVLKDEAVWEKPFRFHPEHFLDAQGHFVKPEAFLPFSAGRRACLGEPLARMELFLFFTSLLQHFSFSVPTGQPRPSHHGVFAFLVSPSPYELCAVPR

[4] = Tissue distribution in mice; format: in vivo; settings: ICR mice, 30 mg/kg oral, n = 3
Experimental: In addition, tissue distribution of 17a was investigated. 17a was orally administered to mice at 30 mg/kg, and 2 was administrated as a positive control (Figure 5). […] Significant activity of 17a in the OLTT appeared to result from high concentration in the small intestine, even though bioavailability of 17a was not great in mice.
Figure 5. Tissue distribution of 17a in mice. 17a and 2 were orally administered to ICR mice at 30 mg/kg (n = 3). (a) AUC values of 17a and 2 in indicated tissues. […] Data represent mean value. (b) Tissue-to-plasma (T/P) ratio of 17a and 2. S.I.: small intestine, L.I.: large intestine.

With `O=C([O-])C[C@H]1CC[C@@H](c2csc3c(-c4ccc(NC(=O)Nc5cccc(Cl)c5)cc4)ncnc32)CC1.[Na+]` [Compound 17a, Sodium cis-2–(4–(4-(4-(3–(3-chlorophenyl)ureido)phenyl)thieno[3,2-d]pyrimidin-7-yl)cyclohexyl)acetate] the IC50 [1] was 0.074 µM, the IC50 (hDGAT2) was over 10 µM and the “Microsomal stability, remaining percent” value [2] was 94%. For the same compound, the “Microsomal stability, remaining percent” value [3] was 82%, the IC50 (CYP2D6) was 8.7 µM and the “Tissue distribution (concentration levels in tissues)” value [4] was “in the liver and small intestine were much higher than in other tissues”.
